Source: ChEMBL document CHEMBL5674860, “Optimized Dual-Glo Assay to identify co-culture-induced drug vulnerabilities in 3D CRC models” (2024)

Legend:
Assay type in all cases: functional, Homo sapiens
Design in all cases: dose or concentration left out as unconfirmed
Colon cancer organoid [1] = assay: Optimized Dual-Glo assay to identify co-culture induced drug vulnerabilities using donated chemical probes and chemogenomics kinase set in O14 CRC organoid and F14 CAF mono and co-culture. […] Cell viability is reported both mono and co-culture models.
Colon cancer organoid [2] = assay: Optimized Dual-Glo assay to identify co-culture induced drug vulnerabilities using donated chemical probes and chemogenomics kinase set in O06 CRC organoid and F06 CAF mono and co-culture. […] Cell viability is reported both mono and co-culture models.
Colon cancer organoid [3] = assay: Optimized Dual-Glo assay to identify co-culture induced drug vulnerabilities using donated chemical probes and chemogenomics kinase set in O20 CRC organoid and F20 CAF mono and co-culture. […] Cell viability is reported both mono and co-culture models.
[4] = Culture type Co-Culture, Transduced with Lucferase2-P2A-EGFP lentivirus
[5] = Culture type Co-Culture, Transduced with Renilla-dsRed lentivirus
[6] = Culture type Mono-Culture, Transduced with Lucferase2-P2A-EGFP lentivirus
[7] = Culture type Mono-Culture, Transduced with Renilla-dsRed lentivirus

SMILES | Cell Viability (Colon cancer organoid [1]; [4]) [%] | Cell Viability (Colon cancer organoid [1]; [5]) [%] | Cell Viability (Colon cancer organoid [1]; [6]) [%] | Cell Viability (Colon cancer organoid [1]; [7]) [%] | Cell Viability (Colon cancer organoid [2]; [4]) [%] | Cell Viability (Colon cancer organoid [2]; [5]) [%] | Cell Viability (Colon cancer organoid [2]; [6]) [%] | Cell Viability (Colon cancer organoid [2]; [7]) [%] | Cell Viability (Colon cancer organoid [3]; [4]) [%] | Cell Viability (Colon cancer organoid [3]; [5]) [%] | Cell Viability (Colon cancer organoid [3]; [6]) [%] | Cell Viability (Colon cancer organoid [3]; [7]) [%]
CN(C(=O)c1cnn2cccnc12)c1cc2c(cc1N1CCOCC1)C(=O)N(C[C@@H](F)C(C)(C)O)C2 | 89.5893 | 113.489 | 112.103 | 103.195 | 93.6773 | 65.3185 | 72.0703 | 97.8487 | 85.0124 | 89.8275 | 94.3235 | 98.269
CCOCCn1cc(C(=O)Nc2ccc(-n3nc(-c4cccnc4)cc3C(F)(F)F)cn2)ccc1=O [BI 1935] | 119.66 | 103.733 | 123.828 | 100.697 | 92.9458 | 113.636 | 108.149 | 105.749 | 76.3275 | 148.205 | 94.4512 | 98.9549
CSc1cccnc1N1CCN(Cc2nc3ccccc3[nH]2)CC1 [A-769] | 93.5096 | 109.84 | 108.274 | 96.7022 | 120.489 | 139.823 | 101.067 | 109.755 | 125.432 | 98.3481 | 117.315 | 102.928
O=C(N1CCS(=O)(=O)CC1)N1C[C@H](c2ccc(OC(F)(F)F)cc2)C[C@H](c2nc(C3CC3)no2)C1 [BAY-386] | 116.117 | 119.771 | 94.8331 | 98.6833 | 131.392 | 144.172 | 106.882 | 101.013 | 61.9652 | 114.29 | 99.9064 | 89.9943
COc1nc2ccc([C@@](O)(c3ccccc3)C3CCN(C(C)=O)CC3)cc2c(Cl)c1Cc1ccc(-n2cccn2)cc1 [JNJ-54119936] | 91.6435 | 104.692 | 80.3234 | 104.355 | 98.9754 | 75.6952 | 103.766 | 113.997 | 65.101 | 118.395 | 94.7218 | 120.218
CCN(CC)S(=O)(=O)Nc1cccc(-c2ccc3c(NC(=O)C4CC4)n[nH]c3c2)c1 | 132.967 | 105.386 | 144.3 | 103.503 | 95.7035 | 91.2372 | 90.915 | 111.432 | 76.1767 | 136.148 | 110.502 | 120.639
CC(=O)NCC(=O)N1[C@@H]2CC[C@H]1c1ccc(Nc3ncc(C(F)(F)F)c(NC4CCC4)n3)cc12 [PF-03814735] | 21.4424 | 92.7993 | 23.2786 | 69.2613 | 12.5382 | 132.747 | 7.137 | 42.3421 | 4.585 | 155.761 | 7.993 | 63.4074
CCCOc1ccn2c(C(C)=O)cc(-c3ccccc3S(C)(=O)=O)c2c1 | 117.77 | 112.498 | 105.54 | 97.3869 | 121.922 | 129.269 | 172.982 | 130.382 | 148.391 | 117.742 | 112.445 | 111.137
Cc1cc(-n2nc(Cc3cc(F)cc(C(F)(F)F)c3)nc2C)ccc1C(N)=O [TP-024] | 111.425 | 96.0369 | 116.033 | 105.901 | 141.247 | 165.614 | 109.141 | 106.563 | 120.055 | 118.791 | 103.637 | 122.989
Nc1ncnc2c1ccn2[C@@H]1O[C@H]([C@H](O)c2ccccc2)[C@@H](O)[C@H]1O | 19.223 | 140.259 | 27.9797 | 80.8035 | 22.7938 | 108.338 | 39.3105 | 99.7719 | 28.437 | 179.519 | 41.1766 | 89.3267
Cc1cn(-c2cc(NC(=O)c3ccc4c(c3)CN(c3cncnc3)C[C@@H]4C)cc(C(F)(F)F)c2)cn1 | 105.46 | 96.2213 | 134.218 | 97.9875 | 85.5561 | 98.7805 | 59.4105 | 105.628 | 88.3808 | 107.854 | 86.0975 | 111.829
CN1C(=O)c2sccc2N(C)c2nc(Nc3ccc(S(N)(=O)=O)cc3)ncc21 | 32.5942 | 86.9407 | 37.7546 | 55.4366 | 23.972 | 57.2364 | 18.6697 | 40.4928 | 36.1991 | 84.1947 | 15.0082 | 80.0783
CC(C)Oc1ccc(-c2c[nH]cc2CN(C)CCN)cc1 | 38.1359 | 167.261 | 29.2667 | 88.3814 | 47.5822 | 178.793 | 30.9197 | 89.9891 | 47.7555 | 252.195 | 49.3092 | 91.7276
CC(C)NC(=O)N1CC[C@H](NC2=Nc3cc(F)ccc3N(CC(F)F)c3ccc(Cl)cc32)C1 | 105.089 | 97.5374 | 82.3325 | 100.505 | 86.0472 | 89.4587 | 81.5326 | 94.1375 | 55.1322 | 142.836 | 58.5304 | 89.934
